Results reported in patent US4330527A, “Wound treatment agent” (priority 1979, dated 1982).
“Also recorded” adds a separate entry of the source.

Experiments:
NPT [1] = assay type: biochemical, Clostridium perfringens ATCC 21510
[2] = system: granulation tissue in P.V.H.-sponge; design: species or system rats (Wistar strain, male); conditions: rat, in vivo
NPT [3] = assay type: biochemical, Clostridium perfringens ATCC 21510; remark: listed apart in the source
5'-nucleotidase = assay: Effects of metal ions and other chemical agents on nucleotidase activity; assay type: biochemical
epidermis (dorsal skin) = assay: Experiment 9: epidermization effect on dermatome-peeled dorsal skin; assay type: in vivo, rabbit; conditions: further examination
epidermis = conditions: literature; cited from earlier work
[4] = system: collagen in P.V.H.-sponge; assay: Experiment 6: weight of collagen (hydroxyproline) in the buried sponge; assay type: in vivo, rats; conditions: for Hydroxyproline: n = 8; for Hydroxyproline, % of control: control = 100%

3-phosphoglycerophosphate
action as phosphate donor (NPT [1]): not observed

CC(=O)OCC(=O)[C@@]1(O)CC[C@H]2[C@@H]3CCC4=CC(=O)C=C[C@]4(C)[C@H]3[C@@H](O)C[C@@]21C [Prednisolone acetate]
(1) Wet weight [2]: 225 ± 58.9 mg
(1)-(2) Liquid content [2]: 167.4 ± 52.2 mg
(2) - sponge weight, Solid content [2]: 22.6 ± 9.6 mg
(2) Dry weight [2]: 57.8 ± 9.9 mg
Dry weight, % [2]: 91.2%
Liquid content, % [2]: 68.4%
Solid content, % [2]: 80.7%
Wet weight, % [2]: 73.0%
effect on weights / newly grown granulation tissue (in words) [2]: the dry weight, wet weight, quantity of exudate and weight of newly grown granulation tissue all fall below those with the control

Nc1ncnc2c1ncn2[C@@H]1O[C@H](COP(=O)(O)OP(=O)(O)OP(=O)(O)O)[C@@H](O)[C@H]1O [adenosine triphosphate]
action as phosphate donor (NPT [1]): not observed

CN(CC(=O)O)C(=N)NP(=O)(O)O [creatine phosphate]
action as phosphate donor (NPT [1]): not observed

Nc1ccn([C@@H]2O[C@H](CO)[C@@H](O)[C@H]2O)c(=O)n1 [cytidine]
action as phosphate acceptor (NPT [1]): phosphate acceptor

Nc1ncnc2c1ncn2[C@H]1C[C@H](O)[C@@H](COP(=O)(O)OP(=O)(O)OP(=O)(O)O)O1 [deoxyadenosine triphosphate]
action as phosphate donor (NPT [1]): not observed

Nc1ccn([C@H]2C[C@H](O)[C@@H](CO)O2)c(=O)n1 [deoxycytidine]
action as phosphate acceptor (NPT [1]): phosphate acceptor

O=c1ccn([C@H]2C[C@H](O)[C@@H](CO)O2)c(=O)[nH]1 [deoxyuridine]
action as phosphate acceptor (NPT [1]): phosphate acceptor

O=P(O)(O)OC[C@H]1OC(O)[C@H](O)[C@@H](O)[C@@H]1O (some centres unmarked) [glucose-6-phosphate]
action as phosphate donor (NPT [1]): not observed

O=C(O)c1cc[c]([Hg][Cl])cc1 [p-chloromercuribenzoic acid]
effect on NPT activity (NPT [3]): neither of them are inhibited
effect on nucleotidase activity (5'-nucleotidase): neither of them are inhibited

Cc1cn([C@H]2C[C@H](O)[C@@H](CO)O2)c(=O)[nH]c1=O [thymidine]
action as phosphate acceptor (NPT [1]): phosphate acceptor

O=c1ccn([C@@H]2O[C@H](CO)[C@@H](O)[C@H]2O)c(=O)[nH]1 [uridine]
action as phosphate acceptor (NPT [1]): lowest activity as the phosphate acceptor

[O]=[Zn] [zinc oxide]
capability of epidermization (in words) (epidermis (dorsal skin)): synergistic effect with GF-70 to stimulate the epidermization

O=P(O)(O)OCC(O)CO (stereo not drawn) [α-glycerophosphate]
action as phosphate donor (NPT [1]): not observed

vitamin A
effect on skin tissue / DNA synthesis in epidermis (epidermis): stimulates synthesis of DNA in the epidermis; also recorded: affect the growth and differentiation of the skin tissue

B1: Albumin: egg albumin as the control (protein, UniProt P01012 2-386, looked up)
Ovalbumin: GSIGAASMEFCFDVFKELKVHHANENIFYCPIAIMSALAMVYLGAKDSTRTQINKVVRFDKLPGFGDSIEAQCGTSVNVHSSLRDILNQITKPNDVYSFSLASRLYAEERYPILPEYLQCVKELYRGGLEPINFQTAADQARELINSWVESQTNGIIRNVLQPSSVDSQTAMVLVNAIVFKGLWEKAFKDEDTQAMPFRVTEQESKPVQMMYQIGLFRVASMASEKMKILELPFASGTMSMLVLLPDEVSGLEQLESIINFEKLTEWTSSNVMEERKIKVYLPRMKMEEKYNLTSVLMAMGITDVFSSSANLSGISSAESLKISQAVHAAHAEINEAGREVVGSAEAGVDAASVSEEFRADHPFLFCIKHIATNAVLFFGRCVSP
weight of collagen (in words) ([4]; 4th and 7th days, vs control): no significant difference
Hydroxyproline ([4]; 4 days after burying): 132.3 ± 18.0 μg/sponge
Hydroxyproline, % of control ([4]; 4 days after burying): 105%
Hydroxyproline ([4]; 7 days after burying): 331.7 ± 18.8 μg/sponge
Hydroxyproline, % of control ([4]; 7 days after burying): 146%
